Experimental data as given in patent US9340539B2, “Hepatitis C inhibitor compounds” (priority 2011, dated 2016).

Test system: HCVpp (HCV E1/E2, isolate Con1) entry into Hep3B2.1-7 cells
Assay: microbe, parasite or virus in culture
Assay type: cell-based
Settings: Hepatitis C virus, 72 h, read-out: EC50 (nM) (Ex. 58)

SMILES | EC50 [nM]
CC1(C)CC(C)(C)c2c([nH]c3ccc(-c4nnc(NC5CCS(=O)(=O)C5)o4)cc23)C1=O (stereo not drawn) [Compound 1103] | 34
O=C(NC1CCS(=O)(=O)C1)c1ccc2[nH]c3c(c2c1)C1(CCCC3=O)CC1 (stereo not drawn) [Compound 1104] | 122
COC(=O)c1ccc2[nH]c3c(c2c1)C(C)(C)CC(C)(C)C3=O [Compound 1107] | 195
CC1(C)CC(C)(C)c2c([nH]c3ccc(C(=O)NC4CCN(CCF)C4)cc23)C1=O (stereo not drawn) [Compound 2003] | 117
CC1(C)CC(C)(C)c2c([nH]c3ccc(C(=O)NC4CCN(C(=O)c5ccccn5)C4)cc23)C1=O (stereo not drawn) [Compound 2026] | 36
CC1(C)CC(C)(C)c2c([nH]c3ccc(C(=O)NC4CCN(S(C)(=O)=O)C4)cc23)C1=O (stereo not drawn) [Compound 2058] | 39
CN1CCC[C@H](NC(=O)c2ccc3[nH]c4c(c3c2)C(C)(C)CC(C)(C)C4=O)C1 [Compound 3006] | 102
CC1(C)CC2(CCOCC2)C(=O)c2[nH]c3ccc(C(=O)NC4CCS(=O)(=O)C4)cc3c21 (stereo not drawn) [Compound 5003] | 385
CC1(C)CC2(CC2)C(=O)c2[nH]c3ccc(C(=O)NC4CCN(C(=O)c5nc[nH]n5)C4)cc3c21 (stereo not drawn) [Compound 5008] | 22
CC1CC(C)(C)c2c([nH]c3ccc(C(=O)NC4CCS(=O)(=O)C4)cc23)C1=O (stereo not drawn) [Compound 5014] | 187
COCC1(C)CC(C)(C)c2c([nH]c3ccc(C(=O)NC4CCN(C(=O)c5n[nH]c(N)n5)C4)cc23)C1=O (stereo not drawn) [Compound 5017] | 9.3
CC1(C)CC2(CC2)c2c([nH]c3ccc(C(=O)NCCCn4cncn4)cc23)C1=O [Compound 6001] | 66
CC1(C)CC2(CCC2)c2c([nH]c3ccc(C(=O)NC4CCN(C(=O)c5nc[nH]n5)C4)cc23)C1=O (stereo not drawn) [Compound 6016] | 3.4
CC1(C)CC(C)(C)c2c([nH]c3ccc(C(=O)NC4CCS(=O)(=O)CC4)cc23)C1=O [Compound 7008] | 201
Cn1cncc1CNC(=O)CNC(=O)c1ccc2[nH]c3c(c2c1)C(C)(C)CC(C)(C)C3=O [Compound 7010] | 126
CC1(C)CC(C)(C)c2c([nH]c3ccc(C(=O)N[C@H]4CC[C@H](NCC5CC5)CC4)cc23)C1=O [Compound 7019] | 82
CC1(C)CC(C)(C)c2c([nH]c3ccc(C(=O)Nc4cnccn4)cc23)C1=O [Compound 7050] | 88
CC1(C)CC(C)(C)c2c([nH]c3cnc(C(=O)NCc4ccccn4)cc23)C1=O [Compound 9004] | 85
